The subject of the assay is BALB/cByJ CRL mice. Kind of assay: SCFA production in caecum content of mice fed low-fiber diets enriched with 5% of tested fibers, measured by Gas-Liquid Chromatography. It is filed as in vivo. To be noted: 5 wt % fiber, versus low-fiber diet only. The source says: 5 week old females BALB/cByJ CRL mice from Charles River were split into several groups and fed during 6 weeks based on the following protocol: • Week 1: low-fiber diet (composition is detailed in table 2) for all groups • Weeks 2 to 6: • Control group (group A): low-fiber diet (same as for week 1) • Test groups (groups B-D): low-fiber diet (same as for week 1) supplemented with 5 wt % of a tested fiber (5% of the total low fiber diet was replaced by 5% of a tested fiber)
The following fibers were tested: • BMOs=bovine milk oligosaccharides: an oligosaccharide mixture comprising 99.3% of GOS, 0.2% of N-acetylated oligosaccharide and 0.5% sialylated oligosaccharide was tested • PDX=polydextrose • Pectin
After 6 weeks, the animals of each group were sacrificed and the content from caecum was collected. The SOFA production were measured by Gas-Liquid Chromatography (GLC; amounts of SOFA in nmol/mg dry weight). The following SOFA were measured: propionate, butyrate, valerate and acetate.
The measure was made based on the following protocol: SOFA in an acid solution (pH 2.0 to 3.0) were separated on a GLC column coated with a polar stationary phase. […] After centrifugation, the sterile-filtered supernatant was ready for analysis by GLC. SOFA were measured simultaneously.
Median ratio values were calculated in order to compare the different fiber-enriched diets on SOFA production.

The source of these data is patent US20190046545A1, “COMPOSITIONS WITH SPECIFIC OLIGOSACCHARIDES TO PREVENT LATER IN LIFE OBESITY OR RELATED COMORBIDITIES, BY INCREASING COLONIC SCFA PRODUCTION AND/OR BY INCREASING GLP-1 SECRETION” (NESTEC S.A., priority 2016, published 2019).

Take Pectin: the “Caecal SCFA production (acetate, propionate, butyrate, valerate) compared with low-fiber diet” value was “less SOFA release of all kinds”.
The entry for polydextrose [PDX] is “less SOFA release of all kinds”.
